Laboratory results from patent US8268869B2, “Vinyl indazolyl compounds” (Eli Lilly and Company, priority 2009, dated 2012).

How the values were obtained:
[1] = tested on: Human bladder cancer cells RT112; assay: Xenograft tumor model RT-112 (bladder); assay type: in vivo, nude mice; conditions: oral gavage
Description: (§1) One of Human bladder cancer cells RT112 (European Collection of Cell Cultures), human multiple myeloma cells OPM-2 (German Collection of Microorganisms and Cell Cultures), human non-small cell lung cancer (NSCL) cells NCI-H460 (American Type Culture Collection), human pancreatic cancer cells BxPC-3 (American Type Culture Collection) or human gastric cancer cells SNU-16 (American Type Culture Collection) are expanded in culture, according to KOREAN CELL LINE BANK (KCLB) recommendations, harvested and injected subcutaneously onto the rear flank of nude mice. When tumors are established (7-21 days after implant), animals are randomized and grouped into control and test groups. Test compound is prepared in an appropriate vehicle (i.e. formulated in 10% Acacia), and the test compound and a vehicle control are administered by oral gavage. Tumor response is determined by tumor volume measurement performed twice a week during the course of treatment and reported as percent inhibition of tumor volume versus the vehicle control group.

[2] = tested on: human pancreatic cancer cells BxPC-3; assay: Xenograft tumor model BxPC-3 (pancreatic); assay type: in vivo, nude mice; conditions: oral gavage
Description: as §1

[3] = tested on: human multiple myeloma cells OPM-2; assay: Xenograft tumor model OPM-2 (multiple myeloma); assay type: in vivo, nude mice; conditions: oral gavage
Description: as §1

[4] = tested on: FGF receptor 1 (b-FGF induced pERK in HUVEC); assay: AlphaScreen SureFire Detection of ERK phosphorylation (Thr202/Tyr204) in HUVEC; assay type: cell-based; conditions: Homo sapiens, b-FGF 50 ng/mL, 20 mg/mL BSA
Protocol: The effect of compounds on the inhibition of FGF receptor 1 is measured by monitoring the phosphorylation of ERK (pERK) in response to basic-Fibroblast growth factor (b-FGF) stimulation in Human Umbilical Endothelial cells (HUVEC). The levels of pERK formed are measured using the ALPHASCREEN® […]® system (TGR Biosciences, TGRES50K). This is a homogeneous assay format utilizing the immuno-sandwich capture of the phosphorylated analyte followed by detection using antibody-coated ALPHASCREEN® beads (Perkin Elmer) to generate an amplified signal.
HUVEC cells are recovered and maintained in growth medium consisting of endothelial cell basal medium (Clonetics, CC-3132) supplemented with 10% FBS 0.4% bovine brain extract 0.1% hydrocortisone, 0.1% gentamicin sulfate amphotericin-B (GA-1000), and 0.1% epidermal growth factor, human recombination until passage 7. For the assay, cells are harvested by standard procedures and then counted. Cells (20,000/well) are plated in 100 μL of growth medium into 96 well Poly-D-Lysine coated plates (BD, 354640). Plates are incubated overnight at 37° C., 5% CO2.
On the day of the assay, cells are serum starved in 100 μL EBM (endothelial cell basal) medium containing 1.5% FBS and 20 mg/mL BSA for 3 hours at 37° C., 5% CO2, then treated with 20 μL of 3× serially diluted compounds in starvation medium for 1 hour at 37° C. […]

Kdr = target: T1, Kdr (Mus musculus, UniProt P35918); assay: In vivo Kdr target inhibition assay (VEGF induced phospho-Kdr in mouse heart); conditions: female nude mice, oral gavage, VEGF i.v., heart tissue
T1 construct: Heart tissues are collected and homogenized as described above; from tissue; host or cells: heart of female nude mice (CD1/nu/nu)
T1 sequence (P35918 20-1345): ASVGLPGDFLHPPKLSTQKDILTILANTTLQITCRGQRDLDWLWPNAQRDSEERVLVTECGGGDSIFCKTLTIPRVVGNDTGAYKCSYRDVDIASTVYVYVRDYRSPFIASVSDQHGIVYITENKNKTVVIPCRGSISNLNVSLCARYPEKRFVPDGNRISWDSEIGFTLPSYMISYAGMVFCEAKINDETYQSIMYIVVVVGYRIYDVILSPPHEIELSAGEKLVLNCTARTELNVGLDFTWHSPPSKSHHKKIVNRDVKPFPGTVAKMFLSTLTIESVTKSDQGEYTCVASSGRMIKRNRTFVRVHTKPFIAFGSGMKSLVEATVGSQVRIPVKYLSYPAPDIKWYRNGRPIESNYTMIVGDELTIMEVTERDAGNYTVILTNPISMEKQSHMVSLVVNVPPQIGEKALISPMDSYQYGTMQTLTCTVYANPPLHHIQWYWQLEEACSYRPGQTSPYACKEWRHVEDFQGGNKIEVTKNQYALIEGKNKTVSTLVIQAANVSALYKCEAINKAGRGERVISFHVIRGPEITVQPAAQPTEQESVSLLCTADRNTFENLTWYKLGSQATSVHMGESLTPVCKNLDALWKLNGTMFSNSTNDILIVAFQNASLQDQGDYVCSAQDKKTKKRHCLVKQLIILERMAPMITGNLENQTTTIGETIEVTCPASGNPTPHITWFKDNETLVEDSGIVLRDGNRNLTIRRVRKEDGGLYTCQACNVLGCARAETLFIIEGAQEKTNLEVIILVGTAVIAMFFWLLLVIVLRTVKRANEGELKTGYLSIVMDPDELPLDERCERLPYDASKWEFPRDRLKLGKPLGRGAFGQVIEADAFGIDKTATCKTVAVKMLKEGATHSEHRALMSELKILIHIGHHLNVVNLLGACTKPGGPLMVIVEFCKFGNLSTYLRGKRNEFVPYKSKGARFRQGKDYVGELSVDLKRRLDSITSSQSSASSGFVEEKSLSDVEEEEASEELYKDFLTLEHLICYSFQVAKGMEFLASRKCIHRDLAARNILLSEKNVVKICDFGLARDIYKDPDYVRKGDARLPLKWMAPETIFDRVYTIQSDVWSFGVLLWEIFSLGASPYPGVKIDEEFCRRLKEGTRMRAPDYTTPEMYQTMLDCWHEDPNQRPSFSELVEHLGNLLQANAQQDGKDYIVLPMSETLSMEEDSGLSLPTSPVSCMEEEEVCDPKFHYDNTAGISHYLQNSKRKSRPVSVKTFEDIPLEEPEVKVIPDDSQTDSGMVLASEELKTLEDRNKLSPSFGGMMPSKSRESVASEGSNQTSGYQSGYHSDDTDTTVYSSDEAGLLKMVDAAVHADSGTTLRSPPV
Protocol: To assess the activity of this compound against Kdr, female nude mice (CD1/nu/nu) are acclimated and treated as described above except VEGF is used to induce Kdr autophosphorylation {VEGF (6 ug/animal, R & D Systems 493-MV/CF). Heart tissues are collected and homogenized as described above. The resulting homogenates are analyzed using MSD® phospho-Kdr ELISA (Meso Scale Discovery, catalog number N41ZA-1) to determine tissue phospho-Kdr level. […] The positive control group is treated with VEGF […]) in saline administered intravenously (as minimum p-KDR inhibition of 0%).

[5] = tested on: human gastric cancer cells SNU-16; assay: Xenograft tumor model SNU-16 (gastric); assay type: in vivo, nude mice; conditions: oral gavage
Description: as §1

[6] = tested on: human non-small cell lung cancer (NSCL) cells NCI-H460; assay: Xenograft tumor model NCI-H460 (NSCLC); assay type: in vivo, nude mice; conditions: oral gavage
Description: as §1

[7] = tested on: FGF9 induced ERK phosphorylation in Human RT112 bladder carcinoma cells; assay: FGF9 induced p-ERK with BSA in RT112 cells; assay type: cell-based; conditions: RT-112, relative IC50, RT112 cells, 20 mg/mL BSA, 500 ng/mL FGF9
Protocol: Human RT112 bladder carcinoma cells are seeded at a density of 5,000 cells per well in 100 μL RPMI 1640 (Gibco 11875-085) supplemented with 10% fetal bovine serum (FBS, Gibco 10082-147) and 1% of a penicillin/streptomycin solution (Gibco 15140-122) in CELLBIND® 96 well plates (Corning 3340) and incubated overnight at 37° C. The next morning the growth medium is removed and replaced with 100 μL RPMI 1640 supplemented with 20 mg/mL bovine serum albumin (BSA). After 3 hours of incubation at 37° C., 20 μL of 3× serially diluted compounds in RPMI 1640 with 20 mg/mL BSA in 6% DMSO are added to each well. This yielded a 10 point dose-response curve ranging from 10-0.005 μM in 1% DMSO. The incubation is continued for 1 hour at 37° C. The cells are stimulated with 50 μL of a […] FGF9 (R&D Systems 273-F9) solution in serum free RPMI to give a final concentration of 500 ng/mL FGF9. Cells are fixed by the addition of 30 μL of a 25% formaldehyde solution in phosphate buffered saline (PBS) (3.7% formaldehyde final concentration), and incubated 30 minutes at RT. Cells are washed 3× with PBS, followed by the addition of 100 μL of cold methanol and incubated for 30 minutes at −20° C. The methanol is removed and the cells are treated with PBS containing 0.1% TRITON® X-100 (PBST), washed 3× with PBS, and incubated 15 minutes at RT. […]

## C[C@@H](Oc1ccc2[nH]nc(/C=C/c3cnn(CCO)c3)c2c1)c1c(Cl)cncc1Cl [Example 1, (R)-(E)-2-(4-(2-(5-(1-(3,5-Dichloropyridin-4-yl)ethoxy)-1H-indazol-3-yl)vinyl)-1H-pyrazol-1-yl)ethanol]
[1]; RT-112, 3 mg/kg BID for 21 days
  percent inhibition of tumor volume versus vehicle control: 85.9%
[1]; RT-112, 3 mg/kg QD for 21 days
  percent inhibition of tumor volume versus vehicle control: 41.3%
[2]; BxPC-3, 3 mg/kg BID for 21 days
  percent inhibition of tumor volume versus vehicle control: 55%
[2]; BxPC-3, 3 mg/kg QD for 21 days
  percent inhibition of tumor volume versus vehicle control: 1%
[3]; OPM-2, 3 mg/kg BID for 21 days
  percent inhibition of tumor volume versus vehicle control: 84%
[3]; OPM-2, 3 mg/kg QD for 21 days
  percent inhibition of tumor volume versus vehicle control: 68%
[4]
  IC50: 0.6 nM
Kdr
  TEC90 (concentration necessary to achieve 90% inhibition of phospho-Kdr): 252 nM
  TED50 (dose necessary to achieve 50% inhibition of phospho-Kdr): 1.34 mg/kg
[5]; SNU-16, 3 mg/kg BID for 17 days
  percent inhibition of tumor volume versus vehicle control: 83%
[5]; SNU-16, 3 mg/kg QD for 17 days
  percent inhibition of tumor volume versus vehicle control: 62%
[6]; NCI-H460, 3 mg/kg BID for 17 days
  percent inhibition of tumor volume versus vehicle control: 69%
[6]; NCI-H460, 3 mg/kg QD for 17 days
  percent inhibition of tumor volume versus vehicle control: 46%
[7]
  IC50: 0.4 nM
